Consider 19 compounds from patent EP4696688A1, “BENZO-FUSED RING COMPOUND INHIBITOR, AND PREPARATION METHOD THEREFOR AND USE THEREOF” (Shanghai Hansoh Biomedical Co., Ltd., priority 2023, dated 2024).

In general, EC50 refers to the midpoint of the concentration-response curve. Low values mean higher potency in that assay, high ones lower potency in that assay.

One test addresses T1, human CYP11B1 (Homo sapiens, UniProt P15538).
T1 construct: The main elements of an expression plasmid include ORF of human CYP11B1 or human CYP11B2; expressed in transfected cells
T1 sequence (P15538 25-503): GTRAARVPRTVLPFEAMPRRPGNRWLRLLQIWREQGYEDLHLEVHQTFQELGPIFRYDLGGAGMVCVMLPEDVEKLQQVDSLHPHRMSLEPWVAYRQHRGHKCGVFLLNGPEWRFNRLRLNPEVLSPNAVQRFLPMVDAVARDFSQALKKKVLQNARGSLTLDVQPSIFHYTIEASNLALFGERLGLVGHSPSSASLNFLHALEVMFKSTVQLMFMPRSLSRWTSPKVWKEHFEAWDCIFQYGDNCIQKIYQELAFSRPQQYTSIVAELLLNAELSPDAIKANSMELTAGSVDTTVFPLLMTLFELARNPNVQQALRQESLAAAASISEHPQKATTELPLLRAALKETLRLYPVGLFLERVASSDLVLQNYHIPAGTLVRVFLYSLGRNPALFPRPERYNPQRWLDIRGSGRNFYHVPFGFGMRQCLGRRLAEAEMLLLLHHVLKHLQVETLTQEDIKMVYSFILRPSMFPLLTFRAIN
Put plainly: G-402 cell enzyme experiment, CYP11B1 (cortisol product, HTRF), selectivity versus CYP11B2. It counts as cell-based. Conditions: human selective factor: ratio of CYP11B1 EC50 to CYP11B2 EC50; G-402 cells. From the text: (§1) G-402 cell line was used as host cells to express (by transient or stable transfection) an enzyme of the human CYP11 family. Specifically, G-402 cell lines stably expressing human CYP11B1 and human CYP11B2 were established respectively. […] Therefore, the G-402 cell line is very suitable as a host cell for the ectopic expression of an enzyme of the CYP11 family.
(§2) The G-402 cell line, originally derived from renal myoblastoma, can be obtained from ATCC (CRL-1440). The main elements of an expression plasmid include ORF of human CYP11B1 or human CYP11B2, a suitable promoter (CMV promoter), and a suitable resistance marker (neomycin). The expression plasmid was transfected into G-402 cells by standard technology, and a specific antibiotic was then given for screening. The activity of the enzyme expressed by the screened monoclonal cells was assessed by 11-deoxycorticosterone (substrate of CYP11B2) and 11-deoxycortisol (substrate of CYP11B1).
(§3) The G-402 cells expressing CYP11 plasmid, as established in the above solution, were cultured in McCoy's 5a Modified Medium (ATCC Catalog No. 30-2007) containing 10% FCS and 400 µg/ml G418 in an incubator at 37°C and 5% CO2. A cell enzyme experiment was carried out using DMEM/F12 medium containing 2.5% charcoal-treated FBS and an appropriate concentration of a substrate (1 µM 11-deoxycorticosterone or 1 µM 11-deoxycortisol). In order to detect the activity of the enzyme in the cells, the cells were plated in a 96-well plate and incubated for 16 h. The supernatant was then transferred and analyzed for the concentration of the expected product (the product of CYP11B2: aldosterone; the product of CYP11B1: cortisol). The concentrations of these products were determined by an HTRF experiment of CisBio.
(§4) In the cell enzyme experiment, the inhibitory effect of the test compound on the generated product can reflect the inhibitory effect thereof on the enzyme. The dose-dependent inhibition of the enzyme activity by the compound was calculated by plotting the concentration of the test compound (x axis) versus the measured product level (y axis). Then, the original data was fitted to a 4-parameter sigmoidal function (Morgan-Mercer-Flodin, MMF model) by least square method: y = (AB + Cx^D) / (B + x^D) in which A is the maximum y value, B is the EC50 determined by XLFit, C is the minimum y value, and D is the slope value. The maximum value A corresponds to the amount of the product detected without an inhibitor, and C corresponds to the amount of the product detected in the G402 cells expressing an empty plasmid.
(§5) The EC50 value of the compound of the present invention was determined by the above G-402 experiment system. The activity of the CYP11B2 enzyme was determined under the conditions of 1 µM 11-deoxycorticosterone and a variable amount of the inhibitor, and the activity of the CYP11B1 enzyme was determined under the conditions of 1 µM 11-deoxycortisol and a variable amount of the inhibitor.

Another test deals with T2, human CYP11B2 (Homo sapiens, UniProt P19099).
T2 construct: The main elements of an expression plasmid include ORF of human CYP11B1 or human CYP11B2; expressed in transfected cells
T2 sequence (P19099 25-503): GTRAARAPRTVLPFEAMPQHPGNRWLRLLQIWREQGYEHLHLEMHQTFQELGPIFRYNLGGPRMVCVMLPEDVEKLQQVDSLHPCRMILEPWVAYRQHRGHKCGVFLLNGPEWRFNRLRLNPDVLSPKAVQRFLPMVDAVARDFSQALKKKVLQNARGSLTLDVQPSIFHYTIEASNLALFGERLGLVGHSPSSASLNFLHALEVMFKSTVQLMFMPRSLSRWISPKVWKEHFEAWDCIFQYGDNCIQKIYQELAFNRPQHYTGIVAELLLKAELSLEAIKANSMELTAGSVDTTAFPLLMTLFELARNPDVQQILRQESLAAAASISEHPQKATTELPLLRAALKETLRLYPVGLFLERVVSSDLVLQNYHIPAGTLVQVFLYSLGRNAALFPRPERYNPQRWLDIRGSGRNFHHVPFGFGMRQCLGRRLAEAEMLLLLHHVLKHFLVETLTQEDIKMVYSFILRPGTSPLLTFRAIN
As to the kind of experiment: G-402 cell enzyme experiment, CYP11B2 (aldosterone product, HTRF). It counts as cell-based. Conditions: G-402 cells stably expressing human CYP11B2, 1 µM 11-deoxycorticosterone, 16 h.
Description: as §1, §2, §3, §4, §5
In general terms: In TR-FRET formats the signal depends on donor and acceptor labels being close together.

Turning to `COc1ccc2cc(-c3cncc(NC4CN(C(=O)c5cnn(C)c5)C4)c3)ccc2n1` [Example 40, (3-((5-(2-methoxyquinolin-6-yl)pyridin-3-yl)amino)azetidin-1-yl)(1-methyl-1H-pyrazol-4-yl)methanone], at human CYP11B1, the hsF is 2541x. For the same compound, the response at human CYP11B2 was half-maximal at 13 nM (EC50).

As for `COc1ccc2cc(-c3cncc(N4CC5(CN(C(=O)c6cnn(C7CC7)c6)C5)C4)c3)ccc2n1` [Example 43, (1-cyclopropyl-1H-pyrazol-4-yl)(6-(5-(2-methoxyquinolin-6-yl)pyridin-3-yl)-2,6-diazaspiro[3.3]heptan-2-yl)methanone], the hsF on human CYP11B1 was over 4023x. This compound also had an EC50 on human CYP11B2 of 50 nM.

For the compound `COc1ccc2cc(-c3cncc(N4CC5(CCN(C(=O)c6cnn(C)c6)C5)C4)c3)ccc2n1` [Example 51, (2-(5-(2-methoxyquinolin-6-yl)pyridin-3-yl)-2,6-diazaspiro[3.4]octane-6-yl)(1-methyl-1H-pyrazol-4-yl)methanone], the hsF on human CYP11B1 was 157x. Moreover, the EC50 at human CYP11B2 came out at 24 nM.

For `COc1ccc2cc(-c3cncc(NC4CN(C(=O)c5cnn(C6CC6)c5)C4)c3)ccc2n1` [Example 54, (1-cyclopropyl-1H-pyrazol-4-yl)(3-((5-(2-methoxyquinolin-6-yl)pyridin-3-yl)amino)azetidin-1-yl)methanone], on human CYP11B1, the hsF came out at 404x. Also, at human CYP11B2, the EC50 was 21 nM.

In the case of `COc1ccc2cc(-c3cncc(NC4CCN(C(=O)c5cnn(C)c5)CC4)c3)ccc2n1` [Example 56, (4-((5-(2-methoxyquinolin-6-yl)pyridin-3-yl)amino)piperidin-1-yl)(1-methyl-1H-pyrazol-4-yl)methanone], the hsF on human CYP11B1 amounted to 159x. The compound also showed an EC50 on human CYP11B2 of 7 nM.

As for `COc1ccc2cc(-c3cncc(N4CC5(CCN(C(=O)c6cnn(C)c6)CC5)C4)c3)ccc2n1` [Example 62, (2-(5-(2-methoxyquinolin-6-yl)pyridin-3-yl)-2,7-diazaspiro[3.5]nonan-7-yl)(1-methyl-1H-pyrazol-4-yl)methanone], the hsF on human CYP11B1 is given as 174x. On human CYP11B2, the EC50 amounted to 14 nM.

For `COc1ccc2cc(-c3cncc(N4CC5(CC(NC(=O)c6cnn(C)c6)C5)C4)c3)ccc2n1` [Example 63, N-(2-(5-(2-methoxyquinolin-6-yl)pyridin-3-yl)-2-azaspiro[3.3]heptan-6-yl)-1-methyl-1H-pyrazole-4-carboxamide], at human CYP11B1, the hsF was 1912x. Besides, at human CYP11B2, the concentration for a half-maximal effect (EC50) was determined as 6 nM.

Turning to `Cn1c(=O)ccc2cc(-c3cncc(C4=CCN(S(=O)(=O)C5CC5)CC4)c3)ccc21` [Example 70, 6-(1'-(cyclopropylsulfonyl)-1',2',3',6'-tetrahydro-[3,4'-bipyridin]-5-yl)-1-methylquinolin-2(1H)-one], the hsF at human CYP11B1 is given as 252x. The 50% effective concentration (EC50) on human CYP11B2 stood at 55 nM.

In the case of `COc1ccc2cc(-c3cncc(N4CC5(CN(C(=O)C6(C#N)CC6)C5)C4)c3)ccc2n1` [Example 81, 1-(6-(5-(2-methoxyquinolin-6-yl)pyridin-3-yl)-2,6-diazaspiro[3.3]heptane-2-carbonyl)cyclopropane-1-carbonitrile], the hsF on human CYP11B1 was determined as 261x. At human CYP11B2, the response was half-maximal at 5 nM (EC50).

For the compound `COc1ccc2cc(-c3cncc(N4CC5(CN(C(=O)C6CC6)C5)C4)c3)ccc2n1` [Example 82, cyclopropyl (6-(5-(2-methoxyquinolin-6-yl)pyridin-3-yl)-2,6-diazaspiro[3.3]heptan-2-yl)methanone], on human CYP11B1, the hsF came out at 842x. In addition, the response at human CYP11B2 was half-maximal at 18 nM (EC50).

For `COc1ccc2cc(-c3cncc(N4CC5(CN(C(=O)c6ccc(C)nc6)C5)C4)c3)ccc2n1` [Example 84, (6-(5-(2-methoxyquinolin-6-yl)pyridin-3-yl)-2,6-diazaspiro[3.3]heptan-2-yl)(6-methylpyridin-3-yl)methanone], the hsF at human CYP11B1 stood at 1652x. Also, at human CYP11B2, the EC50 was found to be 8 nM.

Turning to `COc1ccc2cc(-c3cncc(N4CC5(CN(C(C)=O)C5)C4)c3)ccc2n1` [Example 92, 1-(6-(5-(2-methoxyquinolin-6-yl)pyridin-3-yl)-2,6-diazaspiro[3.3]heptan-2-yl)ethan-1-one], at human CYP11B1, the hsF is recorded as 1285x. For the same compound, the EC50 at human CYP11B2 amounted to 11 nM.

For the compound `COc1ccc2cc(-c3cncc(N4CC5(CN(C(C)=O)C5)C4)n3)ccc2n1` [Example 93, 1-(6-(6-(2-methoxyquinolin-6-yl)pyrazin-2-yl)-2,6-diazaspiro[3.3]heptan-2-yl)ethan-1-one], the hsF on human CYP11B1 is reported as 229x. This compound also came in with a concentration giving a half-maximal response (EC50) on human CYP11B2 of 48 nM.

Take `COc1ccc2cc(-c3cncc(N4CC5(CN(C(=O)C6(F)CC6)C5)C4)c3)ccc2n1` [Example 94, (1-fluorocyclopropyl)(6-(5-(2-methoxyquinolin-6-yl)pyridin-3-yl)-2,6-diazaspiro[3.3]heptan-2-yl)methanone]: the hsF at human CYP11B1 was determined as 350x. The compound also displayed an EC50 at human CYP11B2 of 13 nM.

As to `COc1ccc2cc(-c3cncc(N4CC5(CN(C(=O)C6(O)CC6)C5)C4)c3)ccc2n1` [Example 97, (1-hydroxycyclopropyl)(6-(5-(2-methoxyquinolin-6-yl)pyridin-3-yl)-2,6-diazaspiro[3.3]heptan-2-yl)methanone], on human CYP11B1, the hsF amounted to 971x. The compound further registered an EC50 at human CYP11B2 of 11 nM.

`Cc1ccc(C(=O)N2CC3(C2)CN(c2cncc(-c4ccc5c(c4)sc(=O)n5C)c2)C3)cn1` [Example 101, 3-methyl-6-(5-(6-(6-methylnicotinoyl)-2,6-diazaspiro[3.3]heptan-2-yl)pyridin-3-yl)benzo[d]thiazol-2(3H)-one]: the hsF at human CYP11B1 is listed as over 4651x. Besides, it took 43 nM to reach a half-maximal effect at human CYP11B2 (EC50).

On to `Cn1cc(C(=O)N2CC3(C2)CN(c2cncc(-c4ccc5c(c4)sc(=O)n5C)n2)C3)cn1` [Example 107, 3-methyl-6-(6-(6-(1-methyl-1H-pyrazole-4-carbonyl)-2,6-diazaspiro[3.3]heptan-2-yl)pyrazin-2-yl)benzo[d]thiazol-2(3H)-one], for which the hsF on human CYP11B1 is over 1923x. Further, at human CYP11B2, it took 104 nM to reach a half-maximal effect (EC50).

Consider `COc1ccc2cc(-c3cncc(N4CC5(CC(N6CCc7cc(C)ncc7C6=O)C5)C4)c3)ccc2n1` [Example 108, 2-(2-(5-(2-Methoxyquinolin-6-yl)pyridin-3-yl)-2-azaspiro[3.3]heptan-6-yl)-6-methyl-3,4-dihydro-2,7-diazanaphthalen-1(2H)-one], for which, at human CYP11B1, the hsF is over 2817x. This compound returned an EC50 on human CYP11B2 of 71 nM.

For `COc1ccc2cc(-c3cncc(N4CCC(NC(=O)c5cnn(C)c5)CC4)n3)ccc2n1` [Example 109, N-(1-(6-(2-methoxyquinolin-6-yl)pyrazin-2-yl)piperidin-4-yl)-1-methyl-1H-pyrazole-4-carboxamide], on human CYP11B1, the hsF worked out at 159x. This compound gave a half-maximal effective concentration (EC50) at human CYP11B2 of 6 nM.
